Experimental data as given in patent US6506772B1, “Substituted [1,2,4]triazolo[1,5a]pyridine derivatives with activity as adenosine receptor ligands” (Hoffmann-La Roche Inc., priority 2000, dated 2003).
Read-outs that look alike come from different tables or passages of the source.

What was measured:
[1] = biological target: T1, HA1 adenosine receptor (Homo sapiens, UniProt P30542); test: Human adenosine A1 receptor affinity (Ki hA1); format: binding
T1 sequence (P30542 1-326): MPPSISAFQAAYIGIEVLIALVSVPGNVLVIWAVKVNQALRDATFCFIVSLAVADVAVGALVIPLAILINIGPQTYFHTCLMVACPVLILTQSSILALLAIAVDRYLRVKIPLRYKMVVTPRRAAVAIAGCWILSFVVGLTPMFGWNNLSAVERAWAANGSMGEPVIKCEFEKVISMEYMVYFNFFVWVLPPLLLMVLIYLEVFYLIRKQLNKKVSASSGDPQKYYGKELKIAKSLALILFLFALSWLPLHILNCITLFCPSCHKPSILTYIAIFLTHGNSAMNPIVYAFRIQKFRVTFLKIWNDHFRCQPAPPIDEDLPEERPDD

[2] = biological target: T2, human adenosine A2A receptor (Homo sapiens, UniProt P29274); test: Human adenosine A2A receptor [3H]-SCH-58261 binding assay
T2 construct: expressed in transfected cells; host or cells: CHO cells, Semliki Forest virus expression system; membrane preparation

[3] = affinity to human adenosine A1 receptor
[4] = affinity to human adenosine A2A receptor, read-out: Ki HA2A
[5] = calculated ratio of the affinity to the HA1 receptor to the HA2a receptor
[6] = recombinant human A2A in CHO cell membranes, [3H]-SCH-58261, Cheng-Prussoff, read-out: Ki hA2A

T2 sequence (P29274 whole entry): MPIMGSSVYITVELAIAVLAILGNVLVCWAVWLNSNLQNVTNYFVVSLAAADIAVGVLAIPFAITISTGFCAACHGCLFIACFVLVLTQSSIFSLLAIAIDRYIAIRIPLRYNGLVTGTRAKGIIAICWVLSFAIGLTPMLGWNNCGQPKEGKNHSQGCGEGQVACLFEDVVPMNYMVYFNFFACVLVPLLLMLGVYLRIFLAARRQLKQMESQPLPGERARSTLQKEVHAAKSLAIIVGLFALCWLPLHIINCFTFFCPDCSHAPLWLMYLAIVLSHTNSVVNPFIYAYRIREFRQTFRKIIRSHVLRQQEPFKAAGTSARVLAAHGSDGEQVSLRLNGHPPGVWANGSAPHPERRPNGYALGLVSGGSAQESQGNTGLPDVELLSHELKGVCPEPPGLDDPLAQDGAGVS

SMILES: Nc1cc(C(=O)N2CCCC2)cc2nc(-c3ccoc3)nn12 [Example 99, (5-Amino-2-furan-3-yl-[1,2,4]triazolo[1,5-a]pyridin-7-yl)-pyrrolidin-1-yl-methanone]
- Ki [1, 3]: 6100 nM
- Ki [2, 4]: 233 nM
- selectivity (A1/A2a) [2, 5]: 26.2

SMILES: CCCN(CCC)C(=O)c1cc(N)n2nc(-c3ccccn3)nc2c1 [Example 420, 5-Amino-2-pyridin-2-yl-[1,2,4]triazolo[1,5-a]pyridine-7-carboxylic acid dipropylamide]
- Ki [1]: 1810 nM
- selectivity (A1/A2a) ([2]; ratio KiHA1 divided by KiHA2A): 17.5
- Ki [2, 6]: 103 nM

SMILES: Nc1cc(C(=O)N2CC=CC2)cc2nc(-c3nccs3)nn12 [Example 281, (5-Amino-2-thiazol-2-yl-[1,2,4]triazolo[1,5-a]pyridin-7-yl)-(2,5-dihydro-pyrrol-1-yl)-methanone]
- Ki [1, 3]: 4340 nM
- Ki [2, 4]: 83.7 nM
- selectivity (A1/A2a) [2, 5]: 51.9

SMILES: CC1CN(C(=O)c2cc(N)n3nc(-c4ccc(Br)o4)nc3c2)CC(C)O1 (stereo not drawn) [Example 304, [5-Amino-2-(5-bromo-furan-2-yl)-[1,2,4]triazolo[1,5-a]pyridin-7-yl]-(2,6-dimethyl-morpholin-4-yl)-methanone]
- Ki [1, 3]: 382 nM
- Ki [2, 4]: 9.3 nM
- selectivity (A1/A2a) [2, 5]: 41.0

SMILES: Nc1cc(C(=O)N2CCCCC2)cc2nc(-c3cccs3)nn12 [Example 129, (5-Amino-2-thiophen-2-yl-[1,2,4]triazolo[1,5-a]pyridin-7-yl)-piperidin-1-yl-methanone]
- Ki [1, 3]: 1460 nM
- Ki [2, 4]: 101 nM
- selectivity (A1/A2a) [2, 5]: 14.5

SMILES: COC[C@@H]1CCCN1C(=O)c1cc(N)n2nc(-c3ccccn3)nc2c1 [Example 426, (5-Amino-2-pyridin-2-yl-[1,2,4]triazolo[1,5-a]pyridin-7-yl)-(S-2-methoxymethyl-pyrrolidin-1-yl)-methanone]
- Ki [1]: 2050 nM
- selectivity (A1/A2a) ([2]; ratio KiHA1 divided by KiHA2A): 17.2
- Ki [2, 6]: 119 nM

SMILES: Nc1cc(C(=O)N2CCCC2)cc2nc(-c3nccs3)nn12 [Example 25, (5-Amino-2-thiazol-2-yl-[1,2,4]triazolo[1,5-a]pyridin-7-yl)-pyrrolidin-1-yl-methanone]
- Ki [1, 3]: 3100 nM
- Ki [2, 4]: 50.4 nM
- selectivity (A1/A2a) [2, 5]: 61.5

SMILES: Nc1cc(C(=O)NCc2ccccc2Br)cc2nc(-c3cccs3)nn12 [Example 164, 5-Amino-2-thiophen-2-yl-[1,2,4]triazolo[1,5-a]pyridine-7-carboxylic acid 2-bromo-benzylamide]
- Ki [1, 3]: 111 nM
- Ki [2, 4]: 25.5 nM
- selectivity (A1/A2a) [2, 5]: 4.4

SMILES: CCN(C(=O)c1cc(N)n2nc(-c3ccccn3)nc2c1)C(C)C [Example 414, 5-Amino-2-pyridin-2-yl-[1,2,4]triazolo[1,5-a]pyridine-7-carboxylic acid ethyl-isopropyl-amide]
- Ki [1]: 885 nM
- selectivity (A1/A2a) ([2]; ratio KiHA1 divided by KiHA2A): 15.8
- Ki [2, 6]: 56 nM

SMILES: CCN(CC)C(=O)c1cc(N)n2nc(-c3cc(Br)co3)nc2c1 [Example 169, 5-Amino-2-(4-bromo-furan-2-yl)-[1,2,4]triazolo[1,5-a]pyridine-7-carboxylic acid diethylamide]
- Ki [1, 3]: 407 nM
- Ki [2, 4]: 119 nM
- selectivity (A1/A2a) [2, 5]: 3.4

SMILES: CC(=O)NC1CCN(C(=O)c2cc(N)n3nc(-c4ccc(Br)o4)nc3c2)C1 (stereo not drawn) [Example 391, N-{1-[5-Amino-2-(5-bromo-furan-2-yl)-[1,2,4]triazolo[1,5-a]pyridine-7-carbonyl]-pyrrolidin-3-yl}-acetamide]
- Ki [1]: 1460 nM
- selectivity (A1/A2a) ([2]; ratio KiHA1 divided by KiHA2A): 27.6
- Ki [2, 6]: 53 nM

SMILES: CCN(Cc1ccccc1)C(=O)c1cc(N)n2nc(-c3nccs3)nc2c1 [Example 323, 5-Amino-2-thiazol-2-yl-[1,2,4]triazolo[1,5-a]pyridine-7-carboxylic acid benzyl-ethyl-amide]
- Ki [1, 3]: 342 nM
- Ki [2, 4]: 25.2 nM
- selectivity (A1/A2a) [2, 5]: 13.6

SMILES: CCN(Cc1ccccc1)C(=O)c1cc(N)n2nc(-c3ccc(Cl)o3)nc2c1 [Example 261, 5-Amino-2-(5-chloro-furan-2-yl)-[1,2,4]triazolo[1,5-a]pyridine-7-carboxylic acid benzyl-ethyl-amide]
- Ki [1, 3]: 37.7 nM
- Ki [2, 4]: 2.6 nM
- selectivity (A1/A2a) [2, 5]: 14.7

SMILES: CCN(Cc1ccccc1)C(=O)c1cc(N)n2nc(-c3ccccn3)nc2c1 [Example 29, 5-Amino-2-pyridin-2-yl-[1,2,4]triazolo[1,5-a]pyridine-7-carboxylic acid benzyl-ethyl-amide]
- Ki [1, 3]: 244 nM
- Ki [2, 4]: 15.9 nM
- selectivity (A1/A2a) [2, 5]: 15.3

SMILES: Nc1cc(C(=O)N2CC=CC2)cc2nc(-c3ccc(Br)o3)nn12 [Example 265, [5-Amino-2-(5-bromo-furan-2-yl)-[1,2,4]triazolo[1,5-a]pyridin-7-yl]-(2,5-dihydro-pyrrol-1-yl)-methanone]
- Ki [1, 3]: 564 nM
- Ki [2, 4]: 7.4 nM
- selectivity (A1/A2a) [2, 5]: 76.2

SMILES: CCN(CC)C(=O)c1cc(N)n2nc(-c3cccs3)nc2c1 [Example 127, 5-Amino-2-thiophen-2-yl-[1,2,4]triazolo[1,5-a]pyridine-7-carboxylic acid diethylamide]
- Ki [1, 3]: 1970 nM
- Ki [2, 4]: 104 nM
- selectivity (A1/A2a) [2, 5]: 18.9

SMILES: Cc1ccsc1-c1nc2cc(C(=O)N3CCCC3)cc(N)n2n1 [Example 188, [5-Amino-2-(3-methyl-thiophen-2-yl)-[1,2,4]triazolo[1,5-a]pyridin-7-yl]-pyrrolidin-1-yl-methanone]
- Ki [1, 3]: 711 nM
- Ki [2, 4]: 226 nM
- selectivity (A1/A2a) [2, 5]: 3.1

SMILES: Nc1cc(C(=O)NCc2ccc(Cl)cc2)cc2nc(-c3ccc(Cl)o3)nn12 [Example 244, 5-Amino-2-(5-chloro-furan-2-yl)-[1,2,4]triazolo[1,5-a]pyridine-7-carboxylic acid 4-chloro-benzylamide]
- Ki [1, 3]: 190 nM
- Ki [2, 4]: 218 nM
- selectivity (A1/A2a) [2, 5]: 0.9

SMILES: CCCCNC(=O)c1cc(N)n2nc(-c3ccc(OC)s3)nc2c1 [Example 67, 5-Amino-2-(5-methoxy-thiophen-2-yl)-[1,2,4]triazolo[1,5-a]pyridine-7-carboxylic acid butylamide]
- Ki [1, 3]: 136 nM
- Ki [2, 4]: 99.1 nM
- selectivity (A1/A2a) [2, 5]: 1.4

SMILES: CC1CCC(C)N1C(=O)c1cc(N)n2nc(-c3ccc(Cl)o3)nc2c1 (stereo not drawn) [Example 258, [5-Amino-2-(5-chloro-furan-2-yl)-[1,2,4]triazolo[1,5-a]pyridin-7-yl]-(2,5-dimethyl-pyrrolidin-1-yl)-methanone]
- Ki [1, 3]: 221 nM
- Ki [2, 4]: 7.2 nM
- selectivity (A1/A2a) [2, 5]: 30.6

SMILES: CC1CCCC(C)N1C(=O)c1cc(N)n2nc(-c3nccs3)nc2c1 (stereo not drawn) [Example 320]
- Ki [1, 3]: 614 nM
- Ki [2, 4]: 82.7 nM
- selectivity (A1/A2a) [2, 5]: 7.4

SMILES: CCCCNC(=O)c1cc(N)n2nc(-c3ccoc3)nc2c1 [Example 98, 5-Amino-2-furan-3-yl-[1,2,4]triazolo[1,5-a]pyridine-7-carboxylic acid butylamide]
- Ki [1, 3]: 767 nM
- Ki [2, 4]: 50.5 nM
- selectivity (A1/A2a) [2, 5]: 15.2

SMILES: CCCCN(CC)C(=O)c1cc(N)n2nc(-c3nccs3)nc2c1 [Example 291, 5-Amino-2-thiazol-2-yl-[1,2,4]triazolo[1,5-a]pyridine-7-carboxylic acid butyl-ethyl-amide]
- Ki [1, 3]: 1540 nM
- Ki [2, 4]: 89.5 nM
- selectivity (A1/A2a) [2, 5]: 17.2

SMILES: COc1ccc(CNC(=O)c2cc(N)n3nc(-c4ccco4)nc3c2)cc1 [Example 183, 5-Amino-2-furan-2-yl-[1,2,4]triazolo[1,5-a]pyridine-7-carboxylic acid 4-methoxy-benzylamide]
- Ki [1, 3]: 302 nM
- Ki [2, 4]: 33.7 nM
- selectivity (A1/A2a) [2, 5]: 9.0

SMILES: Nc1cc(C(=O)NCc2ccccc2Br)cc2nc(-c3ccccc3)nn12 [Example 219, 5-Amino-2-phenyl-[1,2,4]triazolo[1,5-a]pyridine-7-carboxylic acid 2-bromo-benzylamide]
- Ki [1, 3]: 133 nM
- Ki [2, 4]: 30 nM
- selectivity (A1/A2a) [2, 5]: 4.4

SMILES: Nc1cc(C(=O)N2CCOCC2)cc2nc(-c3ccco3)nn12 [Example 108, (5-Amino-2-furan-2-yl-[1,2,4]triazolo[1,5-a]pyridin-7-yl)-morpholin-4-yl-methanone]
- Ki [1, 3]: 6200 nM
- Ki [2, 4]: 299 nM
- selectivity (A1/A2a) [2, 5]: 20.7

SMILES: Cc1ccsc1-c1nc2cc(C(=O)N(Cc3ccccc3)C(C)C)cc(N)n2n1 [Example 144, 5-Amino-2-(3-methyl-thiophen-2-yl)-[1,2,4]triazolo[1,5-a]pyridine-7-carboxylic acid benzyl-isopropyl-amide]
- Ki [1, 3]: 819 nM
- Ki [2, 4]: 63.4 nM
- selectivity (A1/A2a) [2, 5]: 12.9

SMILES: CCCCN(CCC)C(=O)c1cc(N)n2nc(-c3ccc(Br)o3)nc2c1 [Example 342, 5-Amino-2-(5-bromo-furan-2-yl)-[1,2,4]triazolo[1,5-a]pyridine-7-carboxylic acid butyl-propyl-amide]
- Ki [1, 3]: 142 nM
- Ki [2, 4]: 3 nM
- selectivity (A1/A2a) [2, 5]: 47.3

SMILES: CN(Cc1ccccc1)C(=O)c1cc(N)n2nc(-c3ccc(Br)o3)nc2c1 [Example 343, 5-Amino-2-(5-bromo-furan-2-yl)-[1,2,4]triazolo[1,5-a]pyridine-7-carboxylic acid benzyl-methyl-amide]
- Ki [1, 3]: 42.2 nM
- Ki [2, 4]: 2.7 nM
- selectivity (A1/A2a) [2, 5]: 15.6

SMILES: Nc1cc(C(=O)N2CCCC2)cc2nc(-c3ccc(Cl)o3)nn12 [Example 235, [5-Amino-2-(5-chloro-furan-2-yl)-[1,2,4]triazolo[1,5-a]pyridin-7-yl]-pyrrolidin-1-yl-methanone]
- Ki [1, 3]: 770 nM
- Ki [2, 4]: 18.1 nM
- selectivity (A1/A2a) [2, 5]: 42.5
